Structures can show the parent of a compound that is named as a salt.
Experiments:
[1] = tested on: Rats with congenital hypertension (SHR); experiment: Anti-hypertension activity, tail-cuff method; type: in vivo, rat; conditions: oral
Experimental: Rats with congenital hypertension (SHR, male, 13-14 weeks old) were purchased from Charles River Co. (Japan). […] SHR were used those having systolic blood pressure of 170 mmHg or higher and each experimental group was composed of 8 rats. Blood pressure was measured using Multichannel 8000 (TSE Co., Germany) according to the tail-cuff method. […] […] The result of measurements was indicated in S.E.M. Statistical analysis of the measurements was performed by using Sigma Stat program (Jandel Co., USA) with respect to unpaired t-test and one-way analysis of variance (ANOVA) and the second evaluation was performed via Dunnett multiple comparisons test.

[2] = Sprague-Dawley (printed: Sprague Dowry), rat, in vivo, po, 10 mg/kg
Experimental: The blood samples were centrifuged for 2 min at 14,000 rpm to obtain blood plasma. 80 μL of the blood plasma was mixed with 240 μL of methanol and vortexed for 10 sec and centrifuged again for 2 min at 14,000 rpm.

[3] = Test for stability: HPLC content of active ingredient after storage at temperature and humidity; type: physicochemical
From the text: This experiment is designed to confirm the stability of amlodipine salt. It is essential for a drug to have sufficient stability in order to be formulated into a specific form of preparation. In particular, it is especially important to have an atmospheric stability for a drug to be formulated into tablets or capsules while aqueous stability is more important when a drug is formulated into an injection type of preparation.

Light stability (UV) = type: physicochemical
From the text: Table 4 represents the result of light stability of amlodipine gentisate salts of the present invention compared to that of amlodipine besylate and the total amount of UV light was 200 W·h/m^2.

rat = conditions: oral; cited from earlier work
wild bird = conditions: oral; cited from earlier work
[4] = UV, total amount of UV light 200 W·h/m^2

| Compound | Time after administration at which a significant decrease in blood pressure started [1] [min] | Time after administration at which the decrease in blood pressure reached the peak [1] [h] | Time after administration until which the anti-hypertension effect was significant [1] [h] | Decrease in Blood Pressure (maximum anti-hypertension effect) ([1]; 1.25 mg/kg) [%] | Decrease in Blood Pressure (maximum anti-hypertension effect) ([1]; 2.5 mg/kg) [%] | Period of highest concentration in blood after administration [2] [h] | Content of active ingredients at 40° C. with 75% humidity ([3]; 2 weeks) [%] | Content of active ingredients at 60° C. with 75% humidity ([3]; 2 weeks) [%] | Content of active ingredients at 40° C. with 75% humidity ([3]; 4 weeks) [%] | Content of active ingredients at 60° C. with 75% humidity ([3]; 4 weeks) [%] | Content of active ingredients at 40° C. with 75% humidity ([3]; 8 weeks) [%] | Content of active ingredients at 60° C. with 75% humidity ([3]; 8 weeks) [%] | Content of active ingredients at 40° C. with 75% humidity ([3]; initial) [%] | Content of active ingredients at 60° C. with 75% humidity ([3]; initial) [%] | Content of active ingredients (Light stability (UV); [4]) [%] | Content of active ingredients (Light stability (UV); initial) [%] | Light stability compared to conventional amlodipine besylate salts (Light stability (UV); under UV or visible light) | Decrease in Blood Pressure (maximum anti-hypertension effect) ([1]; 5.0 mg/kg) [%] | LD50 (rat) [µL/kg] | LD50 (wild bird) [mg/kg] |
| --- | --- | --- | --- | --- | --- | --- | --- | --- | --- | --- | --- | --- | --- | --- | --- | --- | --- | --- | --- | --- |
| CCOC(=O)C1=C(COCCN)NC(C)=C(C(=O)OC)[C@@H]1c1ccccc1Cl [S-(−)-amlodipine gentisate, (S)-(−)-Amlodipine Gentisate Salt] | 30 | 1 | 6 | 19.8±5.5 | 24.5±7.9 | 4 to 6 | 102.9 | 100.1 | 103.5 | 103.0 | 102.3 | 99.9 | 100 | 100 | 100.7 | 100 | superior light stability |  |  |  |
| CCOC(=O)C1=C(COCCN)NC(C)=C(C(=O)OC)C1c1ccccc1Cl.O=S(=O)(O)c1ccccc1 (racemic) [(±)-amlodipine besylate] | 30 | 1 | 6 |  | 20.8±7.3 |  | 99.9 | 98.7 | 99.8 | 97.4 | 99.2 | 98.1 | 100 | 100 | 88.3 | 100 |  | 28.6±7.5 |  |  |
| O=S(=O)(O)c1ccccc1 [Benzenesulfonic acid, benzenesulfonic acid] |  |  |  |  |  |  |  |  |  |  |  |  |  |  |  |  |  |  | 890 | 75 |
| CCOC(=O)C1=C(COCCN)NC(C)=C(C(=O)OC)[C@@H]1c1ccccc1Cl.O=S(=O)(O)c1ccccc1 [S-(−)-amlodipine besylate] |  |  |  |  |  |  | 101.1 | 100.1 | 101.7 | 98.5 | 101.6 | 96.3 | 100 | 100 | 90.1 | 100 |  |  |  |  |

— US7442714B2, “Amlodipine gentisate and a method of its preparation” (SK Chemicals Co., Ltd., priority 2003, dated 2008)
